The source made the active and inactive calls.
What was measured:
[1] = biological target: T1, Zinc finger protein mex-5 (Caenorhabditis elegans, UniProt Q9XUB2); experiment: potency of MEX-5 RNA-binding blockers – biochemical, C. elegans, fluorescence polarization, dose response (AID 1960)
T1 sequence (Q9XUB2 whole entry): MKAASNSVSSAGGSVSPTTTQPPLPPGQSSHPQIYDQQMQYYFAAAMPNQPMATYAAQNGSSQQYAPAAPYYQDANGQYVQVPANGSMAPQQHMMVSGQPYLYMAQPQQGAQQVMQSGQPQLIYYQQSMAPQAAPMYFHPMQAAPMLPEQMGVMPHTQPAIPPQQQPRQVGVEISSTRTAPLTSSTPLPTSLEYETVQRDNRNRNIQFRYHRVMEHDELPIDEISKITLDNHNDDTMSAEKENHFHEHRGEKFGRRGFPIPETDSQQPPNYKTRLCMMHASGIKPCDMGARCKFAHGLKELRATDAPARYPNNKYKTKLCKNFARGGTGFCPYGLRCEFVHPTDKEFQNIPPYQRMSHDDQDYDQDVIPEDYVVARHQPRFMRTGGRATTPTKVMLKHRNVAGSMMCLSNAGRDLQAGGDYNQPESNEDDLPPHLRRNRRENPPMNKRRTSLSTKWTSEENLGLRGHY

[2] = biological target: Alkaline phosphatase, placental type (Homo sapiens, UniProt P05187); experiment: human placental alkaline phosphatase inhibition – biochemical, luminescence, confirmation (AID 1512); format: functional
Chain of Alkaline phosphatase, placental type (P05187 whole entry, the tested form may be a part): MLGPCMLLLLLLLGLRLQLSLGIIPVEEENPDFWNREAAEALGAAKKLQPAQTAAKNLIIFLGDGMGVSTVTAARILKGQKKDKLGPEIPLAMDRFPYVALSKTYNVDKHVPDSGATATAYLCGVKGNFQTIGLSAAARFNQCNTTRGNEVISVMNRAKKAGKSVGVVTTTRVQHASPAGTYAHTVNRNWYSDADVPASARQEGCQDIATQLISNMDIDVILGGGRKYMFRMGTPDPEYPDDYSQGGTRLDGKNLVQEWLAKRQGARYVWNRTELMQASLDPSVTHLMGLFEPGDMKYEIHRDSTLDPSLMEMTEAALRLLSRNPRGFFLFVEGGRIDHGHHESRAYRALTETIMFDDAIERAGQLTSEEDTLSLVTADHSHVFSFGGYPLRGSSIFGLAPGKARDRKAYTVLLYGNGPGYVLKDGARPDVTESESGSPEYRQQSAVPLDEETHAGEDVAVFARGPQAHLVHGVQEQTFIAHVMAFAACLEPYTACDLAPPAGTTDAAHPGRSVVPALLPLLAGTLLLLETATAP

[3] = biological target: T2, RNA-binding protein pos-1 (Caenorhabditis elegans, UniProt G5EF15); experiment: disruptors of C. elegans POS-1 RNA interaction – biochemical, fluorescence polarization, dose response (AID 1964);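 further: purified POS-1 fused to maltose binding protein made in E. coli; potency of compounds blocking POS-1 binding to fluorescent RNA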
T2 sequence (G5EF15 whole entry): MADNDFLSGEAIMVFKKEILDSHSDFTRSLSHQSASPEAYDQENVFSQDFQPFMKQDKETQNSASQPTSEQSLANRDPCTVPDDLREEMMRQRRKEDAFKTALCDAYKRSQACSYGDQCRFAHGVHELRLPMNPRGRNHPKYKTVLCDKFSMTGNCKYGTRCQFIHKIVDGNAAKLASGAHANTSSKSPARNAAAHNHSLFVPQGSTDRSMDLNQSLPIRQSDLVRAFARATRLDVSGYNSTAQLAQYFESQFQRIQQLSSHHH

[4] = Intein inhibitors as potential Tuberculosis drugs, a cytotoxicity screen. [Related pubchem assays (depositor defined):AID2221, AID2223, AID434968, AID435010, AID449749, AID449750, AID489010]; format: functional
[5] = biological target: T3, Replicative DNA helicase DnaB (Mycobacterium tuberculosis, UniProt P9WMR3); experiment: DnaB intein splicing inhibitors, dose response, biochemical, cell-free fluorescence (AID 449749); format: functional
T3 sequence (P9WMR3 whole entry): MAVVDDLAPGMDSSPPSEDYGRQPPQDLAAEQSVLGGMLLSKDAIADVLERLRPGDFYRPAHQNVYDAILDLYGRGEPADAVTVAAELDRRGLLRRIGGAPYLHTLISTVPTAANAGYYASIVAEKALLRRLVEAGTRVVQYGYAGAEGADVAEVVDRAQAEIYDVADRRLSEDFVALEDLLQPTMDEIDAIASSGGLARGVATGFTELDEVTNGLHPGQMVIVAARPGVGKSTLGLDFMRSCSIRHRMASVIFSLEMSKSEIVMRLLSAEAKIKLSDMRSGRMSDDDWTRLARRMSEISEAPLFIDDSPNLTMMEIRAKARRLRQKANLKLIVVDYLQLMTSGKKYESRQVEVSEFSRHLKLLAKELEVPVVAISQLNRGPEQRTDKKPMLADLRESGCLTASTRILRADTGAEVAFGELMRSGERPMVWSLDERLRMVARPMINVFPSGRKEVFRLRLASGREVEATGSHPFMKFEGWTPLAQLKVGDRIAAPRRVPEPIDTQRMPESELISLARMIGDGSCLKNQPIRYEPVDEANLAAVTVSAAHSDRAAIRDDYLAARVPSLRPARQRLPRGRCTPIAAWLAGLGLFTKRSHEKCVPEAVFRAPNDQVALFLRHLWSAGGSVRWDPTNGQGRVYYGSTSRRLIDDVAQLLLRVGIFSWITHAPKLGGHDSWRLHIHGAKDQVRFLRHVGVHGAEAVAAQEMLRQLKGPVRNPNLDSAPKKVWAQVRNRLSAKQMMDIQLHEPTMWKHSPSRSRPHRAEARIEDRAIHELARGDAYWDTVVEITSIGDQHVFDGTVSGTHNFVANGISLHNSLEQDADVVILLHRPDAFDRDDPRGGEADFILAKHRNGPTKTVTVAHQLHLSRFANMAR

Protein RecA = biological target: T4, Protein RecA (Mycobacterium tuberculosis, UniProt P9WHJ3); experiment: Fluorescence Cell-Free Homogeneous Dose Retest to Identify Inhibitors of RecA-Intein Splicing Activity. [Related pubchem assays (depositor defined):AID2097, AID2223, AID489010, AID492950]; format: functional
T4 sequence (P9WHJ3 whole entry): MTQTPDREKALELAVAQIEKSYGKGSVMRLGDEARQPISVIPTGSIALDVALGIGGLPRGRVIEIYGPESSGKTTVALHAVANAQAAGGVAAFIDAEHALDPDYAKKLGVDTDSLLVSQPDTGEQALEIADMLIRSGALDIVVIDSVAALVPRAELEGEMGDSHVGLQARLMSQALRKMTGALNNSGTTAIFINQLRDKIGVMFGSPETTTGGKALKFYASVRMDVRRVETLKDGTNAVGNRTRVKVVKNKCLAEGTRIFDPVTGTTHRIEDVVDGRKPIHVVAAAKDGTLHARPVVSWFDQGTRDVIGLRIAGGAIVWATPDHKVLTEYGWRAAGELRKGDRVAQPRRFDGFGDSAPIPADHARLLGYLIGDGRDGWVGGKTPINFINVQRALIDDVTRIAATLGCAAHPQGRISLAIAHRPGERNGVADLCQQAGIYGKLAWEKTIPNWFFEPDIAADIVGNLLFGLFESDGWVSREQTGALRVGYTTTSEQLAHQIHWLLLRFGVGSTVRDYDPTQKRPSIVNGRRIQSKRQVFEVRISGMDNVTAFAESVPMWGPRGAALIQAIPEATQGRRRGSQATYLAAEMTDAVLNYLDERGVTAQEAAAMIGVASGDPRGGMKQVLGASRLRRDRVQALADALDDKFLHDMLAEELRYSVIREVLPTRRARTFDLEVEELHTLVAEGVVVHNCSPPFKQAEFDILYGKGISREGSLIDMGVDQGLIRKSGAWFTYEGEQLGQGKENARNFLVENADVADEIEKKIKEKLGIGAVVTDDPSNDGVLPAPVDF

T-cell = experiment: loss of vesicle association with mouse CD8+ T cells – mouse 2C CD8+ T cells, flow cytometry, dose response (AID 485284); format: functional
[6] = biological target: E3 ubiquitin-protein ligase Mdm2 (Homo sapiens, UniProt Q00987); experiment: MDM2-luc reporter signal enhancers, multi-concentration potency testing, MDM2 ubiquitin-protein ligase inhibitor program, whole-cell format, luminescence detection, 384-well microplate (AID 1394); format: functional;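 further: MDM2 E3 inhibitors raise luminescence so EC50 is for signal enhancement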
Chain of E3 ubiquitin-protein ligase Mdm2 (Q00987 whole entry): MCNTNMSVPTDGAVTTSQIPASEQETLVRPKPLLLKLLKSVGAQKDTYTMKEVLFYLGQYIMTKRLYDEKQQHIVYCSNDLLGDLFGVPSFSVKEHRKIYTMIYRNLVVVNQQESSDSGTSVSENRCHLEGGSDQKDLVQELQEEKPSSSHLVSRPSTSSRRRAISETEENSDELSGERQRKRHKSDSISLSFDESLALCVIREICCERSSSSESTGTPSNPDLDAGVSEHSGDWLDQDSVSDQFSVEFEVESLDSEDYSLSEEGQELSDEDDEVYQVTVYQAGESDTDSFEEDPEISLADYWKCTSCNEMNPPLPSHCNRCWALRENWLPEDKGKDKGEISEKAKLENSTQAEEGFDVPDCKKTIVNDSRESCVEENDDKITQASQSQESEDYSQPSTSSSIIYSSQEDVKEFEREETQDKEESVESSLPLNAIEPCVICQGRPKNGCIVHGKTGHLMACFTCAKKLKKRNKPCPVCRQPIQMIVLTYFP

[7] = biological target: T5, Delta-type opioid receptor (Homo sapiens, UniProt P41143); experiment: HTS Image-Based Screen for Agonists of the DOR Receptor. [Related pubchem assays (depositor defined):AID1777, AID1786, AID2133]; format: functional
T5 sequence (P41143 whole entry): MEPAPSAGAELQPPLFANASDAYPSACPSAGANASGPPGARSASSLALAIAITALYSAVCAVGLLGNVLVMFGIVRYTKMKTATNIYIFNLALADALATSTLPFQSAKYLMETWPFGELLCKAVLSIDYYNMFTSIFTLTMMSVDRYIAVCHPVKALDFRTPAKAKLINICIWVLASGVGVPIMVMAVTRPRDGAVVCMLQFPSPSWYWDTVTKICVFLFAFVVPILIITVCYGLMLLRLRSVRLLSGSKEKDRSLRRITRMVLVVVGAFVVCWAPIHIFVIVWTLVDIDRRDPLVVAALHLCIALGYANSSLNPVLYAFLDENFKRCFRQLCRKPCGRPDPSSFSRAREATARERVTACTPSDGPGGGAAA

[8] = biological target: T6, Kappa-type opioid receptor (Homo sapiens, UniProt P41145); format: functional
T6 sequence (P41145 whole entry): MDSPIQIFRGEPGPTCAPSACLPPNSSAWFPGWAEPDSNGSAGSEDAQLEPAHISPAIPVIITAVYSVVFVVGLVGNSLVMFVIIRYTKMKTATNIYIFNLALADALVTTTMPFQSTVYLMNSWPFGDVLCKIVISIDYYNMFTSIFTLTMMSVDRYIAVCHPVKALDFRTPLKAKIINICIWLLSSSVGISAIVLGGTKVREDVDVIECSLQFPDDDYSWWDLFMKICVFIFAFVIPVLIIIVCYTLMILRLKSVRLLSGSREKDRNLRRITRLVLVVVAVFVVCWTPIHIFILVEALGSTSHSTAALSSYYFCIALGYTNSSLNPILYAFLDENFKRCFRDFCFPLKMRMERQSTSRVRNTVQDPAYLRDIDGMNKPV

[9] = biological target: T7, G-protein coupled receptor 35 (Homo sapiens, UniProt Q9HC97); experiment: inhibition of zaprinast-stimulated GPR35 beta-arrestin translocation – imaging, U2OS, beta-arrestin-GFP, zaprinast agonist, primary screen (AID 2058); format: functional;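 further: antagonist potency meaning inhibition of agonist-induced arrestin redistribution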
T7 sequence (Q9HC97 whole entry): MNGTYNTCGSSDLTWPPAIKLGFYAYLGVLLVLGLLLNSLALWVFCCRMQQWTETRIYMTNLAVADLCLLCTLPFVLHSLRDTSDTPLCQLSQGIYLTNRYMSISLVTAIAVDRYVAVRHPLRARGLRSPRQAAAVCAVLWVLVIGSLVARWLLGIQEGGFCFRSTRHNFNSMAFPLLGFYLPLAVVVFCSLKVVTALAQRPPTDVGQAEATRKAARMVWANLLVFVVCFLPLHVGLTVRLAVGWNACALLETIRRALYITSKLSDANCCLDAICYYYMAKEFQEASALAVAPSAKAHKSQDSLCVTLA

[10] = luciferase reporter signal suppression in cells – H4 neuroglioma cells, luminescence, dose response (AID 1990); format: functional, cell-based
[11] = biological target: T6, Kappa-type opioid receptor; format: functional; remark: listed apart in the source
[12] = biological target: T8, G-protein coupled receptor 55 (Homo sapiens, UniProt Q9Y2T6); experiment: inhibition of LPI-stimulated GPR55 beta-arrestin translocation – imaging, U2OS, beta-arrestin-GFP, LPI agonist, primary screen (AID 2013); format: functional;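 further: antagonist potency measured as reduced agonist-driven arrestin aggregation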
T8 sequence (Q9Y2T6 whole entry): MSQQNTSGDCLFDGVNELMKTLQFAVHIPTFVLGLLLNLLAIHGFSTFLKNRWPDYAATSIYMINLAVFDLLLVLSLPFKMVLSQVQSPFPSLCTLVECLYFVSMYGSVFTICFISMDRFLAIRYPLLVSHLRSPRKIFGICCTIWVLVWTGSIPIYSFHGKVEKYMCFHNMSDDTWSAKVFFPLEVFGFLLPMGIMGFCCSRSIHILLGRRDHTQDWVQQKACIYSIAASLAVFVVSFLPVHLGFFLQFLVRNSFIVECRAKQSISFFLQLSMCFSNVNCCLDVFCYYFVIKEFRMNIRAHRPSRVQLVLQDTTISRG

[13] = biological target: T5, Delta-type opioid receptor; experiment: HTS Image-Based Screen for Antagonists of the DOR Receptor. [Related pubchem assays (depositor defined):AID1777, AID1785, AID1786, AID2133]; format: functional
[14] = alpha-synuclein stem-loop luciferase translation blockers – H4 neuroglioma cells, luminescence, confirmation (AID 1988); format: functional, cell-based
Beta-galactosidase = Beta-galactosidase (Escherichia coli, UniProt Q8VNN2); format: functional
Chain of Beta-galactosidase (Q8VNN2 whole entry): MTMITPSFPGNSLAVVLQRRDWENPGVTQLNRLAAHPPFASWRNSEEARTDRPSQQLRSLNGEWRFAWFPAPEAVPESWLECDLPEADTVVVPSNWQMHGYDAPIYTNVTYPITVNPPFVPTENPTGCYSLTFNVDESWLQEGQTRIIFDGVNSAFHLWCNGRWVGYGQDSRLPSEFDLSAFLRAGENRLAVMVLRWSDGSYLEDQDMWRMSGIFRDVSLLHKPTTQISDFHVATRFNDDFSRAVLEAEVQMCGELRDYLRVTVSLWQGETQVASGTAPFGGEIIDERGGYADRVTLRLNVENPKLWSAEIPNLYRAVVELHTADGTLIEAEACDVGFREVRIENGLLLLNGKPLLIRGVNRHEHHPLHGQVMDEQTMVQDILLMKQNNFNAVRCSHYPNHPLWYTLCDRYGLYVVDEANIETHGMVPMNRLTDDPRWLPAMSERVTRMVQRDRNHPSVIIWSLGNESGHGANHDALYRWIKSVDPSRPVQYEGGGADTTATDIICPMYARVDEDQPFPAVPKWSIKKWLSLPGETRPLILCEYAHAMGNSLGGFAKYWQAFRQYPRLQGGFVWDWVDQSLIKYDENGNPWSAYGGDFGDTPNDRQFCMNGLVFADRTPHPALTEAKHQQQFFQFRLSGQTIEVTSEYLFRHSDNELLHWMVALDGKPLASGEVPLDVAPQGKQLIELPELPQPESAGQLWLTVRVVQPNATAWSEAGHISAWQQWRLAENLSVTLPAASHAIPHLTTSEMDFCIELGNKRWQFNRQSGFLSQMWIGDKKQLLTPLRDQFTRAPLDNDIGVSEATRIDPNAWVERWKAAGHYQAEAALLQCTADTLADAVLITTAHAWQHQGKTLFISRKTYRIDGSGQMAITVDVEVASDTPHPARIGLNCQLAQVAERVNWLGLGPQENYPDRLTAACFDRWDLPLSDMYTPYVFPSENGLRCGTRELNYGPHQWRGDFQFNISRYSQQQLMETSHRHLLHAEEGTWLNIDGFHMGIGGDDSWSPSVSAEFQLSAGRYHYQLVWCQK

Mu-type opioid receptor [15] = biological target: T9, Mu-type opioid receptor (Homo sapiens, UniProt P35372); experiment: HTS Image-Based Screen for Agonists of the MOR Receptor. [Related pubchem assays (depositor defined):AID1777, AID1785, AID1786, AID2133]; format: functional
T9 sequence (P35372 whole entry): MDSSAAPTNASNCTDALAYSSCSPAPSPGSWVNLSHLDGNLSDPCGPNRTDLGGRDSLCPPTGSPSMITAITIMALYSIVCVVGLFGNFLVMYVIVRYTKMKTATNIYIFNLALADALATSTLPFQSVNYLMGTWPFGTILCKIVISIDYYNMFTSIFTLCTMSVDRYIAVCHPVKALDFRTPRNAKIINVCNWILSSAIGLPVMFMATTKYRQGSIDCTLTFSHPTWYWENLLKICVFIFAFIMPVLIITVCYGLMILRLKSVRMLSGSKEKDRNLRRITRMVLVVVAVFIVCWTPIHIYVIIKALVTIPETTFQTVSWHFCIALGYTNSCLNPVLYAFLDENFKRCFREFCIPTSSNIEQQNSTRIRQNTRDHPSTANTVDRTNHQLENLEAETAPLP

[16] = Luminescence Cell-Based Dose Response HTS to Identify Inhibitors of 5'UTR Stem-Loop Driven Prion Protein mRNA Translation in H4 Neuroglioblastoma Cells. [Related pubchem assays: 1827 (Project Summary), 1813 (Primary HTS)]; format: functional
[17] = biological target: T6, Kappa-type opioid receptor; experiment: SAR analysis of Antagonists of the Kappa Opioid Receptor (KOR) using an Image-Based Assay - Set 3. [Related pubchem assays (depositor defined):AID1777, AID1785]; format: functional
[18] = biological target: T6, Kappa-type opioid receptor; experiment: SAR analysis of small molecule antagonists of the kappa opioid receptor via a luminescent beta-arrestin assay - Set 3. [Related pubchem assays (depositor defined):AID1777, AID1778, AID1785, AID1786, AID1966, AID2133, AID2136, AID2285, AID2495]; format: functional
[19] = biological target: T5, Delta-type opioid receptor; experiment: SAR Analysis of Antagonists of the DOR Receptor using an Image-Based Assay - Set 3. [Related pubchem assays (depositor defined):AID1777, AID1785]; format: functional
Mu-type opioid receptor [20] = biological target: T9, Mu-type opioid receptor; experiment: SAR Analysis of Antagonists of the MOR Receptor using an Image-Based Assay - Set 3. [Related pubchem assays (depositor defined):AID1777, AID1785, AID1786, AID1966, AID2133, AID2136, AID2284, AID2285, AID2420]; format: functional
Cannabinoid receptor 2 [21] = biological target: T10, Cannabinoid receptor 2 (Homo sapiens, UniProt P34972); experiment: SAR analysis of antagonists of the Cannabinoid Receptor 2 using an Image-Based Assay - Set 2. [Related pubchem assays (depositor defined):AID1961, AID1965]; format: functional
T10 sequence (P34972 whole entry): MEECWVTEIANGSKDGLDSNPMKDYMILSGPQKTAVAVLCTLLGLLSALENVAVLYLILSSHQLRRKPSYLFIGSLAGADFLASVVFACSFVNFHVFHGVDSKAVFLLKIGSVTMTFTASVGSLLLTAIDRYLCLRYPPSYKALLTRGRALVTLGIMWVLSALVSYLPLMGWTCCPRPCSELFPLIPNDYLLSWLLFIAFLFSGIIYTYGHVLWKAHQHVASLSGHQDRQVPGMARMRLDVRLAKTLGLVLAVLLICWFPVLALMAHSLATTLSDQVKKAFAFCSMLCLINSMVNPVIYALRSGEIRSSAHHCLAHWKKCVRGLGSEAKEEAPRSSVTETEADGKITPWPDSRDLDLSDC

[22] = biological target: T8, G-protein coupled receptor 55; experiment: SAR analysis of selective Agonists of GPR55 using an Image-Based Assay - Set 2. [Related pubchem assays (depositor defined):AID1961, AID1965]; format: functional
Cannabinoid receptor 2 [23] = biological target: T10, Cannabinoid receptor 2; experiment: SAR analysis of agonists of the Cannabinoid Receptor 2 using an Image-Based Assay - Set 2. [Related pubchem assays (depositor defined):AID1961, AID1965]; format: functional
Cannabinoid receptor 1 [24] = biological target: T11, Cannabinoid receptor 1 (Homo sapiens, UniProt P21554); experiment: SAR analysis of agonists of the Cannabinoid Receptor 1 using an Image-Based Assay - Set 3. [Related pubchem assays (depositor defined):AID1961, AID1965]; format: functional
T11 sequence (P21554 whole entry): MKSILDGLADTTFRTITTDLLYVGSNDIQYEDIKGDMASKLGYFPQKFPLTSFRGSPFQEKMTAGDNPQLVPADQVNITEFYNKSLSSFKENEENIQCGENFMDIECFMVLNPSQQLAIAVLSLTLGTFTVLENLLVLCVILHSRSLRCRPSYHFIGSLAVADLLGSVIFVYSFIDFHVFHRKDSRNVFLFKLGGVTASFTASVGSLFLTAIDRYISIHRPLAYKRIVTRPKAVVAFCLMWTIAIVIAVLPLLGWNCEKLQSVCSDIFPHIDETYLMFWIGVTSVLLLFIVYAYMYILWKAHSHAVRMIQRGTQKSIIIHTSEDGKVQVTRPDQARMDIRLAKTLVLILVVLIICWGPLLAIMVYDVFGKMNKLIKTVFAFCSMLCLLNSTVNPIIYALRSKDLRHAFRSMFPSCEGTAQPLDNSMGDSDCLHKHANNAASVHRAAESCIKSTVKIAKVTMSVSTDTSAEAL

Cannabinoid receptor 1 [25] = biological target: T11, Cannabinoid receptor 1; experiment: SAR analysis of antagonists of the Cannabinoid Receptor 1 using an Image-Based Assay - Set 3. [Related pubchem assays (depositor defined):AID1961, AID1965]; format: functional
[26] = biological target: T7, G-protein coupled receptor 35; experiment: SAR analysis of Agonists of the GPR35 Receptor using an Image-Based Assay - Set 3. [Related pubchem assays (depositor defined):AID1961, AID1965]; format: functional
[27] = biological target: T7, G-protein coupled receptor 35; experiment: SAR analysis of Antagonists of the GPR35 Receptor using an Image-Based Assay - Set 4. [Related pubchem assays (depositor defined):[…]]; format: functional
Large T antigen = Large T antigen (Simian virus 40, UniProt P03070); format: functional, Betapolyomavirus macacae;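 further: Confirmatory-stage PubChem screen for compounds that inhibit SV40 T antigen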
[28] = biological target: T12, Voltage-gated N-type calcium channel alpha-1B subunit/Amyloid beta A4 precursor protein-binding family A member 1 (Homo sapiens, UniProt Q00975+Q02410); format: protein assay
[29] = biological target: T12, Voltage-gated N-type calcium channel alpha-1B subunit/Amyloid beta A4 precursor protein-binding family A member 1; format: protein assay; remark: listed apart in the source
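Wherever CC50 is given: cells exposed to compound for 72 hours before luminescence readout.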

COCCNC(=O)CCC(=O)NNc1nc2ccccc2c2nc(C)nn12
EC50 [1]: 1.21 µM (active) | IC50 [2]: > 100 µM (inactive) | EC50 [3]: 118 µM (active)

O=C(CCl)N1c2ccccc2OCC1c1ccccc1 (stereo not given)
CC50 [4]: 6.48 µM (active) | AC50 [5]: 2.58 µM (active) | EC50 (Protein RecA): 0.606 µM (active)

CCCCn1c(N)c(N(CCOC)C(=O)c2ccc(-c3ccc([N+](=O)[O-])cc3)o2)c(=O)[nH]c1=O
EC50 (T-cell): 23.9 µM (inactive)

CC(NC(=O)Cn1ncc(Cl)c(Cl)c1=O)C12CC3CC(CC(C3)C1)C2 (stereo not given)
EC50 [6]: 1.55 µM (active) | EC50 [7]: > 32 µM (inactive) | IC50 [8]: 2.63 µM | IC50 [9]: 1.07 µM (active) | AC50 [5]: 0.441 µM (active) | EC50 [10]: 8.55 µM (active) | EC50 (Protein RecA): 0.047 µM (active) | IC50 [11]: 2.14 µM (active) | IC50 [12]: 3.92 µM (active) | IC50 [13]: 6.48 µM (active) | EC50 [14]: > 120 µM (not active) | EC50 (Beta-galactosidase): > 31.5 µM (inactive) | EC50 (Mu-type opioid receptor [15]): > 32 µM (inactive) | EC50 [16]: 6.41 µM (active)

CCc1ccc(S(=O)(=O)NCc2ccc(C(=O)NCCN(Cc3ccccc3)Cc3ccccc3)cc2)cc1
IC50 [17]: > 32 µM (inactive) | IC50 [18]: > 20 µM (inactive) | IC50 [19]: > 32 µM (inactive) | IC50 (Mu-type opioid receptor [20]): > 32 µM (inactive)

Cc1cc2cc3c(cc2n2c(SCC(=O)Nc4nc(-c5ccccc5)cs4)nnc12)OCO3
IC50 (Cannabinoid receptor 2 [21]): > 32 µM (inactive) | EC50 [22]: 0.0648 µM (active) | EC50 (Cannabinoid receptor 2 [23]): > 32 µM (inactive) | EC50 (Cannabinoid receptor 1 [24]): > 32 µM (inactive) | IC50 (Cannabinoid receptor 1 [25]): 15.8 µM (inactive) | EC50 [26]: > 32 µM (inactive) | IC50 [27]: > 32 µM (inactive)

N#Cc1c(O)nsc1Nc1ccccc1C(F)(F)F
IC50 (Large T antigen): 56.5 µM (active) | IC50 [28]: > 50 µM (inactive) | IC50 [29]: 7.54 µM (active)

Source: ChEMBL document CHEMBL1201862, “PubChem BioAssay data set” (2004)
